# Paper PMC6630443 (Viruses, 2019)
# Assays:
# USUV = test: microbe, parasite or virus in culture; type: cell-based; conditions: Usutu virus, Vero, 48 h
# in vitro = conditions: African green monkey
# persistent USUV [1] = type: cell-based, Usutu virus
# persistent USUV [2] = type: cell-based, Usutu virus; remark: listed apart in the source
# [3] = in vivo; cited from earlier work
Compound,IC50 (USUV) [µM],Toxicity in words (Vero cells),CC50 (in vitro) [µM],Day by which infectious virus in the cellular supernatant is completely extinct (persistent USUV [1]) [days],Decrease in virus titers and RNA levels in cellular supernatants (persistent USUV [1]),Decrease in intracellular viral RNA levels (persistent USUV [2]) [log10],Plasma concentration [3] [µM]
"O=c1[nH]cc(F)c(=O)[nH]1 [5-Fluorouracil, 2,4-dihydroxy-5-fluoropyrimidine]",71,elevated toxicity,66,,,,
"NC(=O)c1nc(F)cnc1O [Favipiravir, 6-fluoro-3-hydroxy-2-pyrazinecarboxamide]",315,,> 2000,≤ 6,~ 5 log10,< 2,1500 to 2000
"NC(=O)c1ncn([C@@H]2O[C@H](CO)[C@@H](O)[C@H]2O)n1 [Ribavirin, 1-(β-D-Ribofuranosyl)-1H-1,2,4-triazole-3-carboxamide]",163,,> 2000,≤ 6,~ 5 log10,< 2,
